# Test results: BindingDB's records for doi:10.1016/S0960-894X(97)00090-5 (1997)
# Peptide text beside a SMILES is read from it.
# Assay: The concentration of compound required to prevent 50 percent of cells from adhering to MAdCAM-1
row,IC50 [µM],SMILES
1,> 500,CC(=O)N[C@@H](CC(C)C)C(=O)NCC(CC(=O)O)S(=O)(=O)N[C@H](C(N)=O)[C@@H](C)O (stereo partly drawn) [4-((S)-2-Acetylamino-4-methyl-pentanoylamino)-3-((S)-1-carbamoyl-2-(R)-hydroxy-propylsulfamoyl)-butyric acid]
2,219,CC(=O)N[C@@H](CC(C)C)C(=O)NCC(CC(=O)O)S(=O)(=O)N[C@H](C(N)=O)C(C)C (stereo partly drawn) [4-((S)-2-Acetylamino-4-methyl-pentanoylamino)-3-((S)-1-carbamoyl-2-methyl-propylsulfamoyl)-butyric acid]
3,276,"CC(=O)N[C@@H](CC(C)C)C(=O)N[C@@H](CC(=O)O)C(=O)N[C@H](C(N)=O)[C@@H](C)O [(S)-3-((S)-2-Acetylamino-4-methyl-pentanoylamino)-N-((1S,2R)-1-carbamoyl-2-hydroxy-propyl)-succinamic acid] (Ac-Leu-Asp-Thr-NH2)"
4,126,CC(=O)N[C@@H](CC(C)C)C(=O)N[C@@H](CC(=O)O)C(=O)N[C@H](C(N)=O)C(C)C [(S)-3-((S)-2-Acetylamino-4-methyl-pentanoylamino)-N-((S)-1-carbamoyl-2-methyl-propyl)-succinamic acid] (Ac-Leu-Asp-Val-NH2)
